# Source: patent publication US20160215306A1 (priority 2013, published 2016)
# Read-outs that look alike come from different tables or passages of the source.
# Key:
# [1] = Pharmacokinetic profiling: plasma levels after single IV or oral administration; assay type: in vivo, CD1 male mice
# [2] = test system: recombinant β-glucosidase (GO16L, IFF); assay: Cleavage of glucose from resveratrol glucosides by recombinant β-glucosidase; assay type: biochemical; conditions: 1 - β-glucosidase (IFF)
# [3] = test system: Depol™ cellulase (Biocatalysts); assay: Cleavage of glucose from resveratrol glucosides by Depol cellulase; assay type: biochemical; conditions: 2 - Depol IFF (cellulase)
# [4] = test system: Cellulase T. reesei; assay type: biochemical
# [5] = test system: Glusulase; assay: Cleavage of glucose from resveratrol glucosides by Glusulase; assay type: biochemical; conditions: 4 - Glusulase
# [6] = test system: Cellobiase from A. niger; assay type: biochemical
# [7] = test system: β-galactosidase from A. oryzae; assay: Cleavage of glucose from resveratrol glucosides by β-galactosidase; assay type: biochemical; conditions: 6 - β-galactosidase A. oryzae
# [8] = test system: β-glucuronidase; assay: Cleavage of glucose from resveratrol glucosides by β-glucuronidase; assay type: biochemical; conditions: 7 - β-glucuronidase
# [9] = target: T1, EXG1 (Saccharomyces cerevisiae, UniProt P23776); assay: Cleavage of glucose from resveratrol glucosides by broth enriched with EXG1; assay type: biochemical, S. cerevisiae; conditions: 8 - EXG1 broth
# T1 sequence (P23776 41-448): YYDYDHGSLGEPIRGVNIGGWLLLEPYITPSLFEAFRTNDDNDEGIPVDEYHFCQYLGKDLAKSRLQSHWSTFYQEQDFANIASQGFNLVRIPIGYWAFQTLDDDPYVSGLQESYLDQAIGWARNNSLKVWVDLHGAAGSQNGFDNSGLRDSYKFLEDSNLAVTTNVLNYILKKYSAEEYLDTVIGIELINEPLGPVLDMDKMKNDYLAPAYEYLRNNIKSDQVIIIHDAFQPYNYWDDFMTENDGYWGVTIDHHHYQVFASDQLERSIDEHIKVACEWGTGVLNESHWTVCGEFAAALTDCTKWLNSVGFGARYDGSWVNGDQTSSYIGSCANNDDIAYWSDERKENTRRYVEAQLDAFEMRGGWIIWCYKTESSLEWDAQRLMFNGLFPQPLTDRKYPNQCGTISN
# [10] = in water; cited from earlier work
# [11] = target: EXG1 (Saccharomyces cerevisiae, UniProt P23776); assay: Cleavage of piceid by S. cerevisiae cells with or without EXG1; conditions: S. cerevisiae cells with functional EXG1, 125 mg/L piceid, overnight
# [12] = test system: EXG1; assay: as above; conditions: second S. cerevisiae strain (lacking EXG1), 125 mg/L piceid, overnight
# [13] = Solubility in water of purified compounds (H2O saturation, HPLC quantification); conditions: for solubility at 1 min: water, thermodynamic from solid
# [14] = Separate experiment: plasma levels after single oral or IV administration, LC-MS; conditions: for Plasma level of the administered compound after oral administration / Plasma level of the administered compound after IV administration: single dose 10 mL/kg, FIG. 21
# [15] = mouse, in vivo
# [16] = male, CD1, mouse, plasma, intravenous, 10 mg/kg
Molecule,% cleavage in conditions tested [2],% cleavage in conditions tested [3],% cleavage in conditions tested [4],% cleavage in conditions tested [5],% cleavage in conditions tested [6],% cleavage in conditions tested [7],% cleavage in conditions tested [8],% cleavage in conditions tested [9],Solubility mg/L (Literatrure) [10] [mg/L],solubility at 1 min [13] [µg/mL],Plasma level of the administered compound after oral administration [14],Plasma level of the administered compound after IV administration [14],further results
"OC[C@H]1O[C@@H](Oc2cc(O)cc(C=Cc3ccc(O)cc3)c2)[C@H](O)[C@@H](O)[C@@H]1O [Piceid, resveratrol 3-O-β-D-glucopyranoside]",✓ (✓ = >95%),✓ (✓ = >95%),✓ (key: ✓ = >95%; ♦ = 50-95%; • = 5-49%; X = 0%),✓ (✓ = >95%),✓ (key: ✓ = >95%; ♦ = 50-95%; • = 5-49%; X = 0%),✓ (✓ = >95%),✓ (✓ = >95%),♦ (♦ = 50-95%),69,200 to 300,detected at a low level,,"Detection of administered compound in plasma after IV administration ([1]; 10 mg/kg IV): detectable; Detection of administered compound in plasma after oral administration ([1]; 10 mg/kg PO): detectable; Systemic conversion to trans-resveratrol ([1]; after IV and oral administration): converted to trans-resveratrol systemically; concentration at 0.25 h ([1]; male, CD1, mouse, plasma, piceid 10 mg/kg IV, 0.25 h, read-out: Piceid (Detection of piceid) in plasma, IV): 2830 ng/mL; concentration at 0.5 h ([1]; male, CD1, mouse, plasma, piceid 10 mg/kg IV, 0.5 h, read-out: Piceid (Detection of piceid) in plasma, IV): 320 ng/mL; concentration at 1 h ([1]; male, CD1, mouse, plasma, piceid 10 mg/kg IV, read-out: Piceid (Detection of piceid) in plasma, IV): 50 ng/mL; concentration at 0.5 h ([1]; male, CD1, mouse, plasma, piceid 10 mg/kg PO, 0.5 h, read-out: Piceid (Detection of piceid) in plasma, PO): 5 ng/mL; concentration at 1 h ([1]; male, CD1, mouse, plasma, piceid 10 mg/kg PO, read-out: Piceid (Detection of piceid) in plasma, PO): 8 ng/mL; concentration at 2 h ([1]; male, CD1, mouse, plasma, piceid 10 mg/kg PO, 2 h, read-out: Piceid (Detection of piceid) in plasma, PO): 4 ng/mL; Piceid cleaved, yielding resveratrol [11]: approximately 25%; Piceid cleaved [12]: less than 0.5%; Piceid detected in plasma after IV administration ([14]; piceid 17.1 mg/kg IV): approximately 900 ng/mL"
"OC[C@H]1O[C@@H](Oc2ccc(/C=C/c3cc(O)cc(O)c3)cc2)[C@H](O)[C@@H](O)[C@@H]1O (relative stereo) [Resveratroloside, trans-resveratrol-4′-O-β-glucoside]",✓ (✓ = >95%),✓ (✓ = >95%),,✓ (✓ = >95%),,✓ (✓ = >95%),✓ (✓ = >95%),• (• = 5-49%),,,low,low,"Solubility mg/L (in house) ([13]; in nanopure H2O, HPLC): 1,300 mg/L; Plasma levels of resveratrol after administration of the glucoside ([14]; oral and IV administration): a sharp increase in resveratrol"
"OC[C@H]1O[C@@H](Oc2ccc(/C=C/c3cc(O)cc(O[C@@H]4O[C@H](CO)[C@@H](O)[C@H](O)[C@H]4O)c3)cc2)[C@H](O)[C@@H](O)[C@@H]1O (relative stereo) [3,4′-resveratrol diglucoside, trans-resveratrol-3,4′-di-O-β-glucoside]",✓ (✓ = >95%),✓ (✓ = >95%),✓ (key: ✓ = >95%; ♦ = 50-95%; • = 5-49%; X = 0%),✓ (✓ = >95%),✓ (key: ✓ = >95%; ♦ = 50-95%; • = 5-49%; X = 0%),✓ (✓ = >95%),✓ (✓ = >95%),♦ (♦ = 50-95%),,,,,"Plasma level relative to 3,5-resveratrol diglucoside, oral ([15]; po): approximately 3 fold; Time within which compound was cleared from plasma, oral ([15]; po): ≤ 1 h"
"Oc1ccc(C=Cc2cc(O)cc(O)c2)cc1 [Resveratrol, 3,5,4′-trihydroxy-stilbene]",,,,,,,,,15 to 30,30 to 40,cleared quickly,an increase in resveratrol plasma levels appeared 4 h post-administration,"concentration at 0.25 h [1, 16]: 40 ng/mL; concentration at 0.5 h [1, 16]: 4 ng/mL"
"cis/trans-resveratrol-3,5-di-O-β-glucoside [3,5-resveratrol diglucoside]",✓ (✓ = >95%),✓ (✓ = >95%),✓ (key: ✓ = >95%; ♦ = 50-95%; • = 5-49%; X = 0%),✓ (✓ = >95%),✓ (key: ✓ = >95%; ♦ = 50-95%; • = 5-49%; X = 0%),✓ (✓ = >95%),✓ (✓ = >95%),• (• = 5-49%),,,,,"Time of highest plasma level of administered compound, IV ([15]; iv): 1 h; Time within which plasma level declined, IV ([15]; iv): ≤ 4 h; Plasma level of the administered compound after oral administration ([15]; po): high levels; Time within which plasma level declined, oral ([15]; po): ≤ 3 h"
